Calls of active or inactive are those of the source.
What was measured:
[1] = biological target: T1, Alkaline phosphatase, tissue-nonspecific isozyme (Homo sapiens, UniProt P05186)
T1 sequence (P05186 whole entry): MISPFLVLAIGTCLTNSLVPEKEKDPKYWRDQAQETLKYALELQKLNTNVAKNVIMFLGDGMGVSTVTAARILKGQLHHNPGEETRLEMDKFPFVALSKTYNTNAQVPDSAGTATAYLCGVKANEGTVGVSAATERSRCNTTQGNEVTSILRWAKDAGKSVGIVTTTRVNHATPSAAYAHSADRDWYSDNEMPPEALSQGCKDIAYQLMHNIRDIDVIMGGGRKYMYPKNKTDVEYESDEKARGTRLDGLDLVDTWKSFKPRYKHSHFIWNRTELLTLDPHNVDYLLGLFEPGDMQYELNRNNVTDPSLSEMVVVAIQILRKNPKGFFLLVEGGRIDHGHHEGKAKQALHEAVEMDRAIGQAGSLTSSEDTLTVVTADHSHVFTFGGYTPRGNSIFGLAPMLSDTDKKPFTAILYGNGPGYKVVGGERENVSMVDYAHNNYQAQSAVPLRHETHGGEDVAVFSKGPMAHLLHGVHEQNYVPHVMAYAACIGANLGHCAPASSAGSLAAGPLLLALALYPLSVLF

[2] = biological target: T2, Leucine aminopeptidase (Plasmodium falciparum 3D7, UniProt Q8IL11); experiment: P. falciparum M17LAP inhibitors, primary screen, biochemical, fluorogenic H-Leu-NHMec substrate, 1536-well (AID 1619); type: functional
T2 sequence (Q8IL11 whole entry): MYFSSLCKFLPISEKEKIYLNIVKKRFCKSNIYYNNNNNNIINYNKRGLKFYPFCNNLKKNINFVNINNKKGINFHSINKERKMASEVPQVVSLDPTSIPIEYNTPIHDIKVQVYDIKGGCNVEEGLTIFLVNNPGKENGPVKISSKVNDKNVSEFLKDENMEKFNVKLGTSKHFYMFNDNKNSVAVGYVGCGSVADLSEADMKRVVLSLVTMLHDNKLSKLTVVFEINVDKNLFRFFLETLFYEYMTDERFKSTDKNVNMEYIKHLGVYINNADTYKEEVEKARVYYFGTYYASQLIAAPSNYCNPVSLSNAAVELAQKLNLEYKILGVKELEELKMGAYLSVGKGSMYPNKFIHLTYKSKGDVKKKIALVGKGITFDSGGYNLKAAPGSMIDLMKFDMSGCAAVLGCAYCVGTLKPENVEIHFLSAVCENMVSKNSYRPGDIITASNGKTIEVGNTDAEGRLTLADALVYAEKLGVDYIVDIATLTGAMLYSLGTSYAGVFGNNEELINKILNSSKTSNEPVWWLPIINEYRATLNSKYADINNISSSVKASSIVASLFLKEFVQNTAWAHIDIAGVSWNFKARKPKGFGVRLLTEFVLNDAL

[3] = biological target: T3, Bcl-2-like protein 10 (Homo sapiens, UniProt Q9HD36); experiment: Concentration-response of Bcl-B inhibitors by biochemical FP with TR3 (AID 1243); type: functional
T3 sequence (Q9HD36 whole entry): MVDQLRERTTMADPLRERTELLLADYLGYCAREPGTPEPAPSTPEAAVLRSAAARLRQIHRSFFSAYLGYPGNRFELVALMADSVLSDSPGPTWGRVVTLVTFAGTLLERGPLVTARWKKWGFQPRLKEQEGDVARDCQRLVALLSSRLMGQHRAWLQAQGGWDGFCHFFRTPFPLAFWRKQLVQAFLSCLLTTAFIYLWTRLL

[4] = mitochondrial function rescue without frataxin homolog – Friedreich's ataxia, plus single-dose screen, dose response (AID 1465); type: functional;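 further: yeast depleted of Yfh1p frataxin homolog grown on glycerol needing respiration; WST-1 tetrazolium dye reduction as measure of cellular dehydrogenase metabolic activity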
[5] = Counterscreen for IDE inhibitors: Luminescence-based cell-based high throughput dose response assay to identify compounds that are cytotoxic to HEK cells. [Related pubchem assays: 434962 (Primary screen (IDE inhibitors in singlicate)), 449730 (Counterscreen (Cytotoxicity in triplicate)), 435028 (Confirmation (IDE inhibitors in triplicate)) …; type: functional; settings: HEK293
[6] = biological target: T4, Insulin-degrading enzyme (Homo sapiens, UniProt P14735); experiment: Dose Response: Fluorescence polarization-based cell-based high throughput dose response assay for inhibitors of insulin-degrading enzyme (IDE). [Related pubchem assays: 434962 (Primary screen (IDE inhibitors in singlicate)), 449730 (Counterscreen (Cytotoxicity in triplicate)), 435028 (Confirmation (IDE inhibitors in triplicate)), 434984 (Summary …; type: functional
T4 sequence (P14735 whole entry): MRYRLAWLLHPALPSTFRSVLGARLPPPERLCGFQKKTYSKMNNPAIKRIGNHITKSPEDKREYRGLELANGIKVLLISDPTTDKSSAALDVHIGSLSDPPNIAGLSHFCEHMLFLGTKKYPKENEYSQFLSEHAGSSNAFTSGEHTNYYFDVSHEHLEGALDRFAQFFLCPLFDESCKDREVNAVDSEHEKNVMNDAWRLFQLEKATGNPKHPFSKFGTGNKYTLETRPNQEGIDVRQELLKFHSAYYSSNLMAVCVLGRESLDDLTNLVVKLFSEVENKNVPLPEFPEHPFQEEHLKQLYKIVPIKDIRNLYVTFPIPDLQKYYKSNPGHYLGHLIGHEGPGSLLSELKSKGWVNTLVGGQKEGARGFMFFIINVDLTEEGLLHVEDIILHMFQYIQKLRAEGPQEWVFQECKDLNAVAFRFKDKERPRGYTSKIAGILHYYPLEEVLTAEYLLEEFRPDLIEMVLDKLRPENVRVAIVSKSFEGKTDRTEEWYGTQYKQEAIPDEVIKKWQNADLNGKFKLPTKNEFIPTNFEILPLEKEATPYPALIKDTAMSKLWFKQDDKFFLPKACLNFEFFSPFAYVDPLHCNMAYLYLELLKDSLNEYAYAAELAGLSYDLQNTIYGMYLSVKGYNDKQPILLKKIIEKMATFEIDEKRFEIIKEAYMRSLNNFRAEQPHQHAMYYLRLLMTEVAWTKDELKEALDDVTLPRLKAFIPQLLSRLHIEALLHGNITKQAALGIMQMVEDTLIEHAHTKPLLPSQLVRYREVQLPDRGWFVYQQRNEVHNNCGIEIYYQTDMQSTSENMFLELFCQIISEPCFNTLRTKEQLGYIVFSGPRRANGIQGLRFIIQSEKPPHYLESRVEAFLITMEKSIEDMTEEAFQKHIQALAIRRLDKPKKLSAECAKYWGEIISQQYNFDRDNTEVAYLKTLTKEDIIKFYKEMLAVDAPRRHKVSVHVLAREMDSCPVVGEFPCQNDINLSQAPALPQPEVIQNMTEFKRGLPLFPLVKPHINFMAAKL

[7] = HEK-293T viability loss after treatment – luminescence, T-cell screen hits, cytotoxicity control for TCR NF-kB inhibitor project, dose response (AID 489026); type: functional, cell-based;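 further: cells exposed to compound about 14 hours before the viability readout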
[8] = Luminescence-based counterscreen assay for KLF5 inhibitors: dose response cell-based high throughput screening assay to identify cytotoxic compounds using the IEC-6 intestinal epithelial cell line. [Related pubchem assays: 1700 (Primary screen.), 1834 (Confirmation screen.), 1858 (Summary AID.), 1905 (Counterscreen.)]; type: functional
[9] = test system: Vero; experiment: cells; type: functional; settings: Chlorocebus sabaeus
[10] = test system: HEK293; experiment: cells; settings: Homo sapiens;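 further: cells exposed to compound for 14 hours overnight before viability readout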
[11] = ADP-Glo luciferase signal interference – biochemical, luminescence, cherry-picked samples, set 2, artefact control for CDK5 inhibitor project, dose response (AID 504546); type: functional, cell-based
[12] = biological target: Procathepsin L (Homo sapiens, UniProt P07711)
Chain of Procathepsin L (P07711 whole entry): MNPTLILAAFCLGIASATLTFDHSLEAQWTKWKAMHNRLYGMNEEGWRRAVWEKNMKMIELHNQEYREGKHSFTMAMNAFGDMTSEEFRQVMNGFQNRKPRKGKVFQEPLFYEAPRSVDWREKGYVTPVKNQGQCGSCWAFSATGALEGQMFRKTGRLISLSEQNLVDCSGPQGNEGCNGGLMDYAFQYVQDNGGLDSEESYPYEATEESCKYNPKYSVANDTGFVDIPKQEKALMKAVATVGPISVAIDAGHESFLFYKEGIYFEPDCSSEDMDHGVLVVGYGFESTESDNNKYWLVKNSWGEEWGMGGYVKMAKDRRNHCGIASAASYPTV

[13] = biological target: Aspartyl aminopeptidase (Plasmodium falciparum 3D7, UniProt Q8I2J3)
Chain of Aspartyl aminopeptidase (Q8I2J3 whole entry, the tested form may be a part): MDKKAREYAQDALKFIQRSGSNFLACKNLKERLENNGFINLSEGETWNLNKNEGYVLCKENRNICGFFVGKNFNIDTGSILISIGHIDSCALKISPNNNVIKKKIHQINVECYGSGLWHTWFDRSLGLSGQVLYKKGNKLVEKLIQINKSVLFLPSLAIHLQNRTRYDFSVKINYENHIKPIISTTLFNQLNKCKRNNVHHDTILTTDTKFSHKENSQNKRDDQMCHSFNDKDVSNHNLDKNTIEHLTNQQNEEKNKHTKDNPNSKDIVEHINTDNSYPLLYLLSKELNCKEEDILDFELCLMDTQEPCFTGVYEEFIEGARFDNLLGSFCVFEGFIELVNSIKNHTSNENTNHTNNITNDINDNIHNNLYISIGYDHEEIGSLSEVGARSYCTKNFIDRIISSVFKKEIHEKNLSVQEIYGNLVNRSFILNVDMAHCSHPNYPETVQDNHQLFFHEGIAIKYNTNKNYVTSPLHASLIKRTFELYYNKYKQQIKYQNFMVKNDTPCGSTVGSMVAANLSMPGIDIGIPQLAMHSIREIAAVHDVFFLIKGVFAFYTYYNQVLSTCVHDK

[14] = biological target: Disintegrin and metalloproteinase domain-containing protein 17 (Homo sapiens, UniProt P78536); experiment: exosite inhibitors of ADAM17, dose response, biochemical (AID 743260)
Chain of Disintegrin and metalloproteinase domain-containing protein 17 (P78536 whole entry, the tested form may be a part): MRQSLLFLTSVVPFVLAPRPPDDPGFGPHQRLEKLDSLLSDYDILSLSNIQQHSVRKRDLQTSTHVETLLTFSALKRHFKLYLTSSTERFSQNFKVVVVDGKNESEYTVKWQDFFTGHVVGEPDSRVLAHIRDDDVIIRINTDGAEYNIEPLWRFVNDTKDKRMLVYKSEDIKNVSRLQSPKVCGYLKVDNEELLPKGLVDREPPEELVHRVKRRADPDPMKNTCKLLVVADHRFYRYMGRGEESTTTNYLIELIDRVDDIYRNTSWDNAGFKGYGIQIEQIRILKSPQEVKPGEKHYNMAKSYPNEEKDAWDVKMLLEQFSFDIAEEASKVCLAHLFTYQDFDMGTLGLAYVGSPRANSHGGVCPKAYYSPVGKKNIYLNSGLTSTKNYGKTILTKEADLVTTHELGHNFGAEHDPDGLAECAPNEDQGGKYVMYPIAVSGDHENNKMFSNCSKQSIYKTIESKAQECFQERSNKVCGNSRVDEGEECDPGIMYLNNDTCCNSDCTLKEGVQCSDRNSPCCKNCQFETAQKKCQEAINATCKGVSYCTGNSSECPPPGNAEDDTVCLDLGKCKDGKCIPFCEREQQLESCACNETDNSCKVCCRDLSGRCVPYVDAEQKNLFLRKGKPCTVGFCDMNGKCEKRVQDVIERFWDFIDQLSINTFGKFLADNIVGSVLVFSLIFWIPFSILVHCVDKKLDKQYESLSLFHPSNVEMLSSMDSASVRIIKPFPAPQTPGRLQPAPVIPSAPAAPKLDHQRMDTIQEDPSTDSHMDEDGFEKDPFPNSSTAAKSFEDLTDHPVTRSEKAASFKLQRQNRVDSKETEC

[15] = inhibition of ADAM10 peptide cleavage – biochemical, FRET peptide substrate, recombinant human ADAM10, selectivity assay for ADAM17 exosite inhibitor project, dose response (AID 743259);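 further: ADAM10 enzyme cleaving a FRET peptide substrate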
[16] = biological target: Scavenger receptor class B member 1 (Mus musculus, UniProt Q61009); experiment: mouse SR-BI DiI-HDL uptake blockers – ldlA[mSR-BI] cells, fluorescence, cherry pick, dose response (AID 493194); type: functional, cell-based;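 further: cellular uptake of fluorescent DiI-labeled HDL measured as cell fluorescence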
[17] = biological target: Beta-galactosidase (Escherichia coli, UniProt Q8VNN2); type: functional
Chain of Beta-galactosidase (Q8VNN2 whole entry): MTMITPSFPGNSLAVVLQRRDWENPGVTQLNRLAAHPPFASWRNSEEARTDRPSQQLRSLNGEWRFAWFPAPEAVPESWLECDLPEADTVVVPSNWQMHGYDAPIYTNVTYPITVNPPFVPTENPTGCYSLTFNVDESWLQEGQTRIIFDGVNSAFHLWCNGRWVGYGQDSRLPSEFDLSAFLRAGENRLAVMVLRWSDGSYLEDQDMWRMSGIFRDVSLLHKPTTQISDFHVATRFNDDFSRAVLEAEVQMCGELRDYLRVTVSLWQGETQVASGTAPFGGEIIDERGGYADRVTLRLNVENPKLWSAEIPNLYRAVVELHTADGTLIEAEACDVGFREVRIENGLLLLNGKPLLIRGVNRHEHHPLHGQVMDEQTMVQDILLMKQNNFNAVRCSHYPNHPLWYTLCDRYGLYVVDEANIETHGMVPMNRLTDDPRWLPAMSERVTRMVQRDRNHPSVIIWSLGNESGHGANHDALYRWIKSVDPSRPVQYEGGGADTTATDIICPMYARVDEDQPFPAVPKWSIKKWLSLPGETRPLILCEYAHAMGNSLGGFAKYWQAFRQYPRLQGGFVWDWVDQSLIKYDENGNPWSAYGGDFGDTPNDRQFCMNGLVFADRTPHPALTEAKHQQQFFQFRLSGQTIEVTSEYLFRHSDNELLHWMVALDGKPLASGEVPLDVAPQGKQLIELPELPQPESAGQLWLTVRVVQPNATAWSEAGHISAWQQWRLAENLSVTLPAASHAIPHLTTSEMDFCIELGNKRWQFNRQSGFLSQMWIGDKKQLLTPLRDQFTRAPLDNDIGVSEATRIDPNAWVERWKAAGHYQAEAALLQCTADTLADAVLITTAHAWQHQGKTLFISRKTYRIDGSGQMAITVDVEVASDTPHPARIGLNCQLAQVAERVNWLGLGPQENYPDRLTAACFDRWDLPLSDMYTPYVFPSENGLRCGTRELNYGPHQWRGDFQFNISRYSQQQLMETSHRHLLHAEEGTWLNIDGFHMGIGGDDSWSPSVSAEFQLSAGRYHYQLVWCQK

[18] = biological target: NS3 (Hepatitis C virus, UniProt A3EZJ3); experiment: PubChem AID 2173; set-up: species or system Hepacivirus hominis
[19] = biological target: Eukaryotic translation initiation factor 4H (Homo sapiens, UniProt Q15056); experiment: eIF4H binding inhibition – biochemical, uHTS, fluorescence polarization, translation initiation inhibitor project, primary screen (AID 2012)
[20] = biological target: Polyadenylate-binding protein 1 (Homo sapiens, UniProt P11940); experiment: blockers of PABP interaction with poly(A) – biochemical, fluorescence polarization, […] (AID 2014)
Chain of Polyadenylate-binding protein 1 (P11940 whole entry): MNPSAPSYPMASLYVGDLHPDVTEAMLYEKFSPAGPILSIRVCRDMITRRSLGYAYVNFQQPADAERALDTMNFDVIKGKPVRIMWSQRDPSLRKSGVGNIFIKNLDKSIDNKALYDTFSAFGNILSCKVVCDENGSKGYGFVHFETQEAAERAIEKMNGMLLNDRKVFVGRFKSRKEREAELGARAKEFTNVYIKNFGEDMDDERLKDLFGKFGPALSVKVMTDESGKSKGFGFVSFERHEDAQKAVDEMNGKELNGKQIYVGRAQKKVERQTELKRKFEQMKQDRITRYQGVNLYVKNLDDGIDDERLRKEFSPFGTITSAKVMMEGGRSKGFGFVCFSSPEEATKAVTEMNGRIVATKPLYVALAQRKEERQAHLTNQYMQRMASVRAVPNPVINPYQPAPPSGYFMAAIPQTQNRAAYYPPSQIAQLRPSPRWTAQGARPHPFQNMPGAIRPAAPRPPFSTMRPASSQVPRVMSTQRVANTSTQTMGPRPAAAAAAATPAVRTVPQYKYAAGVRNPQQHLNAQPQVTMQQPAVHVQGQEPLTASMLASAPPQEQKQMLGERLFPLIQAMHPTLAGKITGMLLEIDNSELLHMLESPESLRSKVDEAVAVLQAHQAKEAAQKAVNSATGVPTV

[21] = biological target: T5, Heat shock 70 kDa protein 1A (Homo sapiens, UniProt P0DMV8); experiment: small-molecule inhibition of Hsp70 – biochemical, TR-FRET (AID 786)
T5 sequence (P0DMV8 whole entry): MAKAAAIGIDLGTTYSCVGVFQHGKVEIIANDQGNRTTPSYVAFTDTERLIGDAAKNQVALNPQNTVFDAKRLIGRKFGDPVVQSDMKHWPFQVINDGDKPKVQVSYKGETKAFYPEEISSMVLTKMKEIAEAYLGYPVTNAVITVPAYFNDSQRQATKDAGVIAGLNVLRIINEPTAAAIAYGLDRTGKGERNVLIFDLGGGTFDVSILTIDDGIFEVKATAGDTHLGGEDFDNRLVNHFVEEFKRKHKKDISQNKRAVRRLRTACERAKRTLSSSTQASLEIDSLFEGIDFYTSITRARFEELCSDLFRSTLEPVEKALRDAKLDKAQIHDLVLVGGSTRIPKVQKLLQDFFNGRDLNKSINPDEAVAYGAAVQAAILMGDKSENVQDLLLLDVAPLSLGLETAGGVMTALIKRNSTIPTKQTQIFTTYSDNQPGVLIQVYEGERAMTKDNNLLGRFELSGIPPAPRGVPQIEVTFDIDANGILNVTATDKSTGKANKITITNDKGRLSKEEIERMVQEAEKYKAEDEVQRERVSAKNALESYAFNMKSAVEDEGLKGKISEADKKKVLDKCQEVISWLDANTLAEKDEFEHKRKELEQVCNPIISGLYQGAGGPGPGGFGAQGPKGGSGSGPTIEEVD

[22] = biological target: T5, Heat shock 70 kDa protein 1A; experiment: small molecules displacing fluorescent ligand from Hsp70 – biochemical, fluorescence polarization, primary screen (AID 583)
[23] = biological target: Estrogen receptor (Homo sapiens, UniProt P03372);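 further: potency for inhibiting coactivator peptide recruitment to the receptor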
Chain of Estrogen receptor (P03372 whole entry): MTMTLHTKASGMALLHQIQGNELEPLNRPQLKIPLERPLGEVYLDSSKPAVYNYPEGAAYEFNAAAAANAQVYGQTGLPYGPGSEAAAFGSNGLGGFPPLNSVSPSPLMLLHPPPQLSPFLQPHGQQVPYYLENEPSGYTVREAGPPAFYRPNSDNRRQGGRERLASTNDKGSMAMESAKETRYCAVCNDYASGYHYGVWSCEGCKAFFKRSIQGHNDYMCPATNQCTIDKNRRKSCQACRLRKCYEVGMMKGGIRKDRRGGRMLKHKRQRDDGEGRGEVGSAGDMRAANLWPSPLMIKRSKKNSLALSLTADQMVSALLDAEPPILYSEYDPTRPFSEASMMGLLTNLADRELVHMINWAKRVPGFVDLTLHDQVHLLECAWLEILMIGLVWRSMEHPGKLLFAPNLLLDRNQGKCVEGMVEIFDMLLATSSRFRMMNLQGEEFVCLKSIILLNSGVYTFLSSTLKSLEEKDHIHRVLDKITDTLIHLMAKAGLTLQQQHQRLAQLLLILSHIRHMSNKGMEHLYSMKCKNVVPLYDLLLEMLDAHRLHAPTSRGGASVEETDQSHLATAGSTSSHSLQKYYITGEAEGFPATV

[24] = biological target: T6, Microphthalmia-associated transcription factor (Homo sapiens, UniProt O75030); experiment: reducers of TRPM1 reporter luminescence, concentration series – cell-based, SK-MEL-5, cherry-picked, set 3, MITF inhibitor project, dose response (AID 493073); type: functional;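 further: SK-MEL-5 melanoma cells with luciferase driven by the MITF target TRPM1 promoter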
T6 sequence (O75030 whole entry): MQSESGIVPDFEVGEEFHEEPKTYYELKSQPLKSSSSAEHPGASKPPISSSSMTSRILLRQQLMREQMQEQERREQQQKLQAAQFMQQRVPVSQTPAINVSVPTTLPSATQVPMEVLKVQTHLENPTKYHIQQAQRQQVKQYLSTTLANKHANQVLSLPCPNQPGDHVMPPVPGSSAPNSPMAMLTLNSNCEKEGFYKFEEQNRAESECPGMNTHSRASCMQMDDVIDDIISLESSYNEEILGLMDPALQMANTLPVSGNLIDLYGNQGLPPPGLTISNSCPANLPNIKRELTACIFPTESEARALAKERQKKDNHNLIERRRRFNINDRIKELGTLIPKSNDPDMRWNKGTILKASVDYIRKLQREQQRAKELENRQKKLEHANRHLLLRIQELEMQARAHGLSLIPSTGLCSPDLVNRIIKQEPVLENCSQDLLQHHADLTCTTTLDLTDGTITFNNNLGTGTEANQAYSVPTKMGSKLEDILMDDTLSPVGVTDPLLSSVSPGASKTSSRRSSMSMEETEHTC

[25] = test system: HeLa; experiment: Cytotoxicity counterscreen assay for transcriptional activators of heat shock protein 70 (Hsp70). [Related pubchem assays: 1203, 1252 ]; type: functional; settings: Homo sapiens;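 further: cells exposed to compound for 16 hours before readout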

## O=C1/C(=C/c2cccs2)NC(=S)N1C1CC1
[1]
  EC50: > 100 µM (not active)
[2]
  IC50: 6.44 µM (active)

## Cc1cc(I)c2c(c1)C1C=CCC1C(C(=O)O)N2 (stereo not given)
[3]
  EC50: 20.7 µM (active)

## Cc1ccccc1N1C(=O)NC(=O)/C(=C/c2ccc(N3CCOCC3)o2)C1=O
[4]
  EC50: > 100 µM (active)
[5]
  IC50: > 55.6 µM (not active)
[6]
  IC50: 30.5 µM (not active)

## Cc1ccc(C(=O)O/N=C(\N)c2ccccn2)c(C)c1
[7]
  IC50: > 80 µM (inactive)
[8]
  IC50: 13.1 µM (not active)
[9]
  CC50: 22.5 µM (active)
[10]
  IC50: > 20 µM (inactive)
[11]
  AC50: 17.7 µM (active)

## O=C(Nc1cc(N2CCOCC2)ncn1)NC1(C(F)(F)F)Oc2ccccc2O1
[12]
  IC50: > 59.6 µM (not active)
[13]
  IC50: 2.7 µM (active)

## N=C1/C(=C/c2cccn2CCOc2ccccc2)C(=O)N=C2SC=C(c3ccccc3)N12
[14]
  IC50: > 69.5 µM (inactive)
[15]
  IC50: > 69.5 µM (inactive)
[16]
  AC50: 16.9 µM (active)

## C=CCN1CC[C@]23c4c5ccc(O)c4OC2C(=O)CC[C@@]3(O)C1C5 (stereo not given in full)
[17]
  EC50: > 31.5 µM (inactive)

## Nc1c(C(=O)Nc2ccccc2F)sc2nc(-c3ccco3)ccc12
[18]
  IC50: > 36.3 µM (not active)

## Cc1ccc(NC(=O)COC(=O)/C=C/c2ccco2)cc1S(=O)(=O)N(C)C
[19]
  IC50: 21.9 µM (active)
[20]
  IC50: 90.5 µM (active)

## CCOC(=O)C1CCN(C(=O)Cc2c(F)cccc2Cl)CC1
[21]
  IC50: > 100 µM (not active)
[22]
  IC50: > 100 µM (not active)

## O=C(N/N=C/c1cccc(Oc2ccc([N+](=O)[O-])cc2[N+](=O)[O-])c1)c1cncc(Br)c1
[23]
  IC50: 27.9 µM (active)
[24]
  AC50: 243 µM (active)

## CCOC(=O)C1(C/C(C)=N/NC(N)=O)CC(C)OC1=O (stereo not given)
[25]
  CC50: > 99 µM (not active)

Reference: ChEMBL document CHEMBL1201862, “PubChem BioAssay data set” (2004)
